# Read-outs that look alike come from different tables or passages of the source. Starred links: 1 amine or outer side, 2 acyl side, 3 side chain; linkers in the order of their positions; H or OH if unused. Non-standard residues stand in square brackets, D forms with d. Residues, ends and D or L forms follow the SMILES beside them. *: point of attachment. Phe(4-CF3) = N[C@@H](Cc1ccc(C(F)(F)F)cc1)C(=O)O; NMePhe(3-Cl) = CN[C@@H](Cc1cccc(Cl)c1)C(=O)O; NMeF = CN[C@@H](Cc1ccccc1)C(=O)O; NMeGABA = CN(CCCC(=O)[*:2])[*:1]; NMeI = CC[C@H](C)[C@H](NC)C(=O)O; NMeβAla = CN(CCC(=O)[*:2])[*:1]; Aoc(2) = CCCCCC[C@H](N)C(=O)O; NMeL = CN[C@@H](CC(C)C)C(=O)O; NMeV = CN[C@H](C(=O)O)C(C)C; NMeA = CN[C@@H](C)C(=O)O; dNMeA = CN[C@H](C)C(=O)O; β3hA = C[C@H](N)CC(=O)O; Sar = CNCC(=O)O; tBu = CC(C)(C)*
# How the values were obtained:
# [1] = PAMPA (parallel artificial membrane permeability assay); assay type: in vitro ADME; conditions: for Papp at 18 hours, 50 µM: PAMPA
# Procedure, shortened: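 Artificial membrane was 10% (w/v) egg lecithin plus 0.5% (w/v) cholesterol in dodecane on a PVDF filter. A 10 mM DMSO stock was added at 0.5% (v/v) to donor buffer (50 mM MOPSO, pH 6.5, 5.0% glycocholic acid). After 18 h at 37 °C, LC/MS or LC/UV gave donor and acceptor levels for Pe.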
# [2] = Metabolic stability in human hepatic microsome; assay type: in vitro ADME; conditions: microsomes
# [3] = membrane permeation rate (Pe), 50 mM MOPSO buffer pH 6.5 with 5.0% glycocholic acid, 37° C., 18 hours
# [4] = pH 7.4, human hepatic microsome, NADPH(+), read-out: CL NADPH(+)
# [5] = membrane permeation rate (Pe), 50 mM MOPSO buffer pH 6.5 with 5.0% glycocholic acid, 37° C., 18 hours, read-out: iPAMPA Pe
"Papp at 18 hours, 50 µM ([1]; pH 6.5) [×10⁻⁶ cm/s]","microsomal CLint at 1 uM ([2]; human, pH 7.4, CL NADPH(+)) [µL/min/mg]",Structure (SMILES),"iPAMPA Pe [1, 3]","microsomal CLint at 1 uM [2, 4] [µL/min/mg]","Papp at 18 hours, 50 µM [1, 5] [×10⁻⁶ cm/s]"
3.3,33,CC[C@H](C)[C@@H]1NC(=O)[C@H](C)NC(=O)C[C@H](C)NC(=O)[C@H](CC(C)C)NC(=O)[C@H](CC(C)C)NC(=O)[C@H](C(C)C)NC(=O)[C@H](C)N(C)C(=O)[C@H](CC(C)C)NC(=O)CNC(=O)[C@H]([C@@H](C)O)NC(=O)[C@H](CC(C)C)N(C)C(=O)[C@@H]2CCCN2C1=O [DP-808] (cyclo(AIP[NMeL]TGL[NMeA]VLL[β3hA])),,,
,,CC(C)C[C@H]1C(=O)N(C)[C@@H](CC(C)C)C(=O)N[C@@H]([C@@H](C)O)C(=O)N(C)[C@@H](Cc2cccc(Cl)c2)C(=O)NCC(=O)N(C)[C@@H](C(C)C)C(=O)N[C@@H](Cc2ccc(C(F)(F)F)cc2)C(=O)N[C@@H](C)CC(=O)N(C)CCC(=O)N[C@@H](COC(C)(C)C)C(=O)N1C [DP-809] (cyclo(G[NMeV][Phe(4-CF3)][β3hA][NMeβAla]S(tBu)[NMeL][NMeL]T[NMePhe(3-Cl)])),7.0E−05,201,
14,46,CC[C@H](C)[C@H]1C(=O)NCC(=O)N(C)[C@@H](C)C(=O)N[C@@H](CC(C)C)C(=O)N[C@@H](C)CC(=O)N(C)[C@@H](C)C(=O)N[C@@H](CC(C)C)C(=O)N(C)[C@@H](C)C(=O)N[C@@H]([C@@H](C)O)C(=O)N2CCC[C@H]2C(=O)N(C)[C@@H](Cc2cccc(Cl)c2)C(=O)N[C@@H](Cc2ccc(C(F)(F)F)cc2)C(=O)N1C [DP-810] (cyclo(G[NMeA]L[β3hA][NMeA]L[NMeA]TP[NMePhe(3-Cl)][Phe(4-CF3)][NMeI])),,,
,,CC[C@H](C)[C@@H]1NC(=O)[C@H](C)N(C)C(=O)[C@@H](C)N(C)C(=O)C[C@H](C)NC(=O)[C@H](CC(C)C)N(C)C(=O)[C@H](C)N(C)C(=O)[C@H](Cc2cccc(Cl)c2)N(C)C(=O)[C@H]([C@@H](C)O)NC(=O)[C@H](Cc2cccc(Cl)c2)N(C)C(=O)[C@H](CC(C)C)N(C)C1=O [DP-811] (cyclo(I[NMeL][NMePhe(3-Cl)]T[NMePhe(3-Cl)][NMeA][NMeL][β3hA][dNMeA][NMeA])),7.0E−05,241,
,,CC[C@H](C)[C@@H]1NC(=O)[C@H](CC(C)C)N(C)C(=O)[C@H](Cc2cccc(Cl)c2)N(C)C(=O)[C@@H](C(C)C)NC(=O)C[C@H](C)NC(=O)[C@H](CC(C)C)N(C)C(=O)[C@H](C)N(C)C(=O)[C@H]([C@@H](C)O)NC(=O)[C@H](Cc2cccc(Cl)c2)N(C)C(=O)[C@H](C)N(C)C1=O [DP-812] (cyclo(I[NMeA][NMePhe(3-Cl)]T[NMeA][NMeL][β3hA][dV][NMePhe(3-Cl)][NMeL])),,222,34
,,CC[C@H](C)[C@@H]1NC(=O)[C@H](CC(C)C)N(C)C(=O)[C@H](CC(C)C)N(C)C(=O)[C@@H](C(C)C)NC(=O)C[C@H](C)NC(=O)[C@H](CC(C)C)N(C)C(=O)[C@H](C)N(C)C(=O)[C@H]([C@@H](C)O)NC(=O)[C@H](CC(C)C)N(C)C(=O)[C@H](C)N(C)C1=O [DP-813] (cyclo(I[NMeA][NMeL]T[NMeA][NMeL][β3hA][dV][NMeL][NMeL])),,195,30
,,CC(C)C[C@@H]1NC(=O)[C@H](C)NC(=O)C[C@H](C)NC(=O)[C@H](C(C)C)N(C)C(=O)[C@H](Cc2ccc(C(F)(F)F)cc2)NC(=O)[C@H](CC(C)C)N(C)C(=O)[C@H]([C@@H](C)O)NC(=O)[C@H](Cc2ccc(C(F)(F)F)cc2)NC(=O)[C@H](C)N(C)C(=O)CNC(=O)[C@H](CC(C)C)N(C)C(=O)[C@H](C)N(C)C1=O [DP-814] (cyclo(AL[NMeA][NMeL]G[NMeA][Phe(4-CF3)]T[NMeL][Phe(4-CF3)][NMeV][β3hA])),,22,57
42,104,CC[C@H](C)[C@H]1C(=O)NCC(=O)N[C@@H](C)CC(=O)N(C)[C@H](C)C(=O)N[C@@H](Cc2ccccc2)C(=O)N(C)[C@@H](CC(C)C)C(=O)N[C@@H](COC(C)(C)C)C(=O)N[C@@H](Cc2ccccc2)C(=O)N2CCC[C@H]2C(=O)N[C@@H]([C@@H](C)O)C(=O)N[C@@H](CC(C)C)C(=O)N1C [DP-815] (cyclo(F[NMeL]S(tBu)FPTL[NMeI]G[β3hA][dNMeA])),,,
,,CC[C@H](C)[C@H]1C(=O)N(C)[C@@H](C)C(=O)N(C)[C@@H](CC(C)C)C(=O)N[C@@H](COC(C)(C)C)C(=O)N(C)[C@@H](CC(C)C)C(=O)N[C@@H](C)CC(=O)N(C)[C@@H](C)C(=O)N(C)[C@@H](Cc2ccccc2)C(=O)N[C@@H](C)C(=O)N(C)[C@@H](CC(C)C)C(=O)N[C@@H]([C@@H](C)O)C(=O)N1C [DP-816] (cyclo(A[NMeL]T[NMeI][NMeA][NMeL]S(tBu)[NMeL][β3hA][NMeA][NMeF])),,192,32
,,CC[C@H](C)[C@H]1C(=O)N(C)[C@@H](C)C(=O)N(C)[C@@H](CC(C)C)C(=O)N[C@@H](COC(C)(C)C)C(=O)N(C)[C@@H](CC(C)C)C(=O)N[C@@H](C)CC(=O)N(C)[C@@H](C)C(=O)N(C)[C@@H](Cc2ccccc2)C(=O)N[C@@H](CC(C)C)C(=O)N(C)[C@@H](CC(C)C)C(=O)N[C@@H]([C@@H](C)O)C(=O)N1C [DP-817] (cyclo(L[NMeL]T[NMeI][NMeA][NMeL]S(tBu)[NMeL][β3hA][NMeA][NMeF])),,165,25
,,CC(C)C[C@@H]1NC(=O)[C@H](CC(C)C)N(C)C(=O)[C@H](C)NC(=O)[C@H](C(C)C)N(C)C(=O)CN(C)C(=O)[C@H]([C@@H](C)O)NC(=O)[C@H](C)N(C)C(=O)[C@H](CC(C)C)N(C)C(=O)[C@@H](C)NC(=O)C[C@H](C)NC1=O [DP-818] (cyclo(A[NMeL]L[β3hA][dA][NMeL][NMeA]T[Sar][NMeV])),,1,2
,,CC[C@H](C)[C@@H]1NC(=O)[C@H](C)N(C)C(=O)[C@H]([C@@H](C)O)NC(=O)[C@H](C(C)C)N(C)C(=O)[C@@H](C)N(C)C(=O)C[C@H](C)NC(=O)[C@H](Cc2ccccc2)NC(=O)[C@H](C)NC(=O)[C@H](Cc2ccccc2)N(C)C1=O [DP-819] (cyclo(AF[β3hA][dNMeA][NMeV]T[NMeA]I[NMeF])),,134,30
,,CC[C@H](C)[C@H]1C(=O)N[C@@H](COC(C)(C)C)C(=O)N(C)[C@@H](C(C)C)C(=O)N[C@@H](C)CC(=O)N(C)[C@@H](C)C(=O)N(C)[C@@H](Cc2ccccc2)C(=O)N[C@@H](CC(C)C)C(=O)N(C)[C@@H](CC(C)C)C(=O)N[C@@H]([C@@H](C)O)C(=O)N(C)CC(=O)N1C [DP-820] (cyclo(L[NMeL]T[Sar][NMeI]S(tBu)[NMeV][β3hA][NMeA][NMeF])),,511,48
,,CC[C@H](C)[C@H]1C(=O)N[C@@H](COC(C)(C)C)C(=O)N(C)[C@@H](C(C)C)C(=O)N[C@@H](C)CC(=O)N(C)[C@@H](CC(C)C)C(=O)N(C)[C@@H](Cc2ccccc2)C(=O)N[C@@H](CC(C)C)C(=O)N(C)[C@@H](CC(C)C)C(=O)N[C@@H]([C@@H](C)O)C(=O)N(C)CC(=O)N1C [DP-821] (cyclo(L[NMeL]T[Sar][NMeI]S(tBu)[NMeV][β3hA][NMeL][NMeF])),,547,62
,,CCCCCC[C@@H]1NC(=O)[C@H](Cc2ccccc2)N(C)C(=O)[C@H](C)N(C)C(=O)C[C@H](C)NC(=O)[C@H](C(C)C)N(C)C(=O)[C@H](COC(C)(C)C)NC(=O)[C@H](C)N(C)C(=O)CN(C)C(=O)[C@H]([C@@H](C)O)NC(=O)[C@H](CC(C)C)N(C)C1=O [DP-822] (cyclo([Aoc(2)][NMeL]T[Sar][NMeA]S(tBu)[NMeV][β3hA][NMeA][NMeF])),,518,37
,,CC[C@H](C)[C@@H]1NC(=O)[C@H](CC(C)C)N(C)C(=O)[C@H](C)NC(=O)CCCN(C)C(=O)C[C@H](C)NC(=O)[C@H]([C@@H](C)O)NC(=O)[C@H](Cc2ccccc2)NC(=O)[C@H](C(C)C)N(C)C(=O)[C@H](CC(C)C)N(C)C1=O [DP-823] (cyclo(A[NMeL]I[NMeL][NMeV]FT[β3hA][NMeGABA])),,254,31
,,CC[C@H](C)[C@@H]1NC(=O)[C@H](CC(C)C)N(C)C(=O)[C@H](C)NC(=O)CCCN(C)C(=O)C[C@H](C)NC(=O)[C@H]([C@@H](C)O)NC(=O)[C@H](Cc2ccccc2)NC(=O)[C@H](C(C)C)N(C)C(=O)[C@H](Cc2ccccc2)N(C)C1=O [DP-824] (cyclo(A[NMeL]I[NMeF][NMeV]FT[β3hA][NMeGABA])),,501,29
,,CC(C)C[C@@H]1NC(=O)[C@@H](C(C)C)NC(=O)C[C@H](C)NC(=O)[C@H](CC(C)C)N(C)C(=O)[C@H](CC(C)C)N(C)C(=O)[C@H](Cc2ccc(C(F)(F)F)cc2)NC(=O)[C@H](C)N(C)C(=O)[C@H]([C@@H](C)O)NC1=O [DP-825] (cyclo(LT[NMeA][Phe(4-CF3)][NMeL][NMeL][β3hA][dV])),,168,39
,,CC[C@H](C)[C@H]1C(=O)N[C@@H](C)CC(=O)N(C)[C@H](C)C(=O)N(C)[C@@H](CC(C)C)C(=O)N[C@@H]([C@@H](C)O)C(=O)N(C)CC(=O)N[C@@H](COC(C)(C)C)C(=O)N(C)[C@@H](CC(C)C)C(=O)N1C [DP-826] (cyclo([NMeI][β3hA][dNMeA][NMeL]T[Sar]S(tBu)[NMeL])),,213,30
5.8,49,CC[C@H](C)[C@H]1C(=O)NCC(=O)N(C)[C@@H](C)C(=O)N[C@@H](CC(C)C)C(=O)N[C@@H](C)CC(=O)N(C)[C@@H](C)C(=O)N[C@@H](CC(C)C)C(=O)N(C)[C@@H](C)C(=O)N[C@@H]([C@@H](C)O)C(=O)N2CCC[C@H]2C(=O)N1C [DP-827] (cyclo(G[NMeA]L[β3hA][NMeA]L[NMeA]TP[NMeI])),,,
